Test results reported in patent publication US6977252B1, “Use of 1,4-benzothiazepine derivatives as drugs for overcoming resistance to anticancer drugs” (Noboru Kaneko, priority 1999, dated 2005).
Read-outs that look alike come from different tables or passages of the source. Values belong to the compound of their own block, whether it stands above or below them.

Experiments:
[1] = test system: GB-1 human glioblastoma cell and U87-GM cell; conditions: GB-1 cell and U87-GM cell; cited from earlier work
[2] = test system: B16a cell and B16a-Pt cell line; conditions: B16a cell and cisplatin-resistant B16a-Pt cell line; cited from earlier work
[3] = test system: PC-14 human non-small cell lung cancer cell line; test: MTT cell growth inhibition by anticancer drug with or without compound 1, PC-14; assay type: cell-based; conditions: read-out: 50% cell growth inhibiting concentration (IC50) of anticancer drug
Protocol: (§1) PC-14 as a human non-small cell lung cancer cell line and PC-14/CDDP as a cisplatin tolerant cell line thereof were used to examine an effect of overcoming each resistance to cisplatin, carboplatin, nedaplatin and taxol. PC-14 and PC-14/CDDP were made into a single cell in BPMI 1640 medium by trypsinization or by using a cell scraper, and prepared a cell suspension of 100 cells per 15 μl. The compound 1 dissolved in dimethyl sulfoxide was added therein to make final concentration of 10 μm, and then the resulting liquid was poured into a 96-perforated plate at 150 μl per well. An anticancer drug was dissolved in sterilized distilled water. The resulting liquid of 150 μl per well was poured into the first row to transfer in turn from the second row to the next rows by 150 μl for each raw so as to form two-fold dilution rows. A group without the cells was prepared as a negative control, and a group without the anticancer drug and the compound I was prepared as a positive control. After culturing at 37° C. under carbon dioxide having a concentration of 5% and saturated vapor for 96 hours, an MTT [3-(4,5-dimethylthiazol-2-yl)-2,5-diphenyltetrazolium bromide] reagent of 20 μl dissolved in D-PBS (−) at a concentration of 5 mg/ml was added to each of the groups, and the resulting liquid was cultured for another 4 hours at 37° C. After the completion of the culture, the entire plate was centrifuged, and the supernatant was removed. Dimethyl sulfoxide of 200 μl was added to dissolve formazan crystal generated by enzyme activities of mitochondria in the cells. Then, absorbed light of 562–630 nm was determined by using a multiplate reader. Given that the average growth rate of the negative control is 0% and the average growth rate of the positive control is 100%, a dose-growth curve was plotted to calculate […] cell growth inhibiting concentration (IC50).

[4] = test system: PC-14/CDDP cisplatin tolerant cell line; test: MTT cell growth inhibition by anticancer drug with or without compound 1, PC-14/CDDP; assay type: cell-based, human; conditions: for IC50: PC-14/CDDP, MTT, read-out: 50% cell growth inhibiting concentration (IC50) of anticancer drug
Protocol: as §1

[5] = test system: K562/ADM adriamycin resistant cell line; test: MTT cell growth inhibition by adriamycin with or without compound 1, K562/ADM; assay type: cell-based, human; conditions: for IC50: Homo sapiens, K562, K562/ADM, read-out: 50% cell growth inhibiting concentration (IC50) of adriamycin
Protocol: as §1
K562 as a human […] cell line and K562/ADM as an adriamycin resistant cell line thereof were used to examine the effect of overcoming the resistance to adriamycin. […]

PC-14/CDDP tumor = test: Tumor growth in nude mice implanted with PC-14/CDDP; assay type: in vivo, nude mice BALB/c nu/nu; conditions: for lowest T/C / Tumor growth rate GR: PC-14/CDDP; for Tumor growth rate GR: 11th
Protocol: (§2) Female nude mice BALB/c nu/nu (6-week-old) were implanted subcutaneously in each back with 2×10^7 of PC-14/CDDP and the parental cell line PC-14 suspended in physiological saline, then the progress of tumor were observed. On the 7th day from the implantation, tumor condition was checked to select and randomize testable individuals not to cause any deviation, and the selected mice were then divided into a control group and a test group. After each tumor volume was determined based on the formula: (tumor short diameter)^2×(tumor long diameter), administration of drug was started on the seventh day.
(§3) The compound 1 was used as a test compound, 1.2 mg of which was dissolved in 0.05 ml of dimethyl sulfoxide, and then combined with 0.95 ml of 5% sorbitol-0.2% citric acid 1 hydrate solution (pH3.3) to make uniform solution.
(§4) Cisplatin was used as an anticancer drug, and was dissolved in distilled water to prepare 1.6 mg/ml solution.
(§5) The administration process is carried out by simultaneous intravenous injections of 0.05 ml of the test compound and 0.05 ml of the anticancer-drug solution once a day on the 7th, 11th, 15th day after the tumor implantation. For the control group, 0.1 ml of physiological saline was administered by intravenous injection, and for the group to be administered only the anticancer drug, 0.05 ml of the anticancer-drug solution and 0.05 ml of physiological saline were administered by intravenous injection. One dose of the test compound was 3 mg/kg, and one dose of the anticancer drug was 4 mg/kg. During the administration of the drug, physical status of the whole body of the mice was observed, and the weight and the long/short lengths of tumor were measured. Tumor growth rate (GR) and effect of inhibiting cancer (lowest T/C) were calculated based on the following formulas, respectively. [formula] [formula]

[6] = test system: K562 human promyelocytic leukemia cell line; test: MTT cell growth inhibition by adriamycin with or without compound 1, K562; assay type: cell-based
Protocol: PC-14 as a human non-small cell lung cancer cell line and PC-14/CDDP as a cisplatin tolerant cell line thereof were used to examine an effect of overcoming each resistance to cisplatin, carboplatin, nedaplatin and taxol. PC-14 and PC-14/CDDP were made into a single cell in BPMI 1640 medium by trypsinization or by using a cell scraper, and prepared a cell suspension of 100 cells per 15 μl. The compound 1 dissolved in dimethyl sulfoxide was added therein to make final concentration of 10 μm, and then the resulting liquid was poured into a 96-perforated plate at 150 μl per well. An anticancer drug was dissolved in sterilized distilled water. The resulting liquid of 150 μl per well was poured into the first row to transfer in turn from the second row to the next rows by 150 μl for each raw so as to form two-fold dilution rows. A group without the cells was prepared as a negative control, and a group without the anticancer drug and the compound I was prepared as a positive control. […] Then, absorbed light of 562–630 nm was determined by using a multiplate reader. […]

PC-14 tumor = test: Tumor growth in nude mice implanted with PC-14; assay type: in vivo, nude mice BALB/c nu/nu; conditions: for Tumor growth rate GR: 11th
Protocol: as §2, §3, §4, §5

[7] = test system: KCP-4 cell isolated from human nasopharyngeal cancer KB cells; conditions: KCP-4 cisplatin-resistance cell; cited from earlier work
[8] = PC-14, with compound 1 (final concentration 10 μm), 96 hours
[9] = PC-14, without compound 1, 96 hours
[10] = with compound 1 (final concentration 10 μm), 96 hours

SMILES: COC(=O)C1=C(C#N)NC(C)=C(C(=O)OC(C)C)C1c1cccc([N+](=O)[O-])c1 (centres unmarked) [nilvadipine]
drugs that enhance any significant antitumor effect of cisplatin [1]: none

SMILES: COc1ccc([C@@H]2Sc3ccccc3N(CCN(C)C)C(=O)[C@@H]2OC(C)=O)cc1 [diltiazem]
enhancement of antitumor effect of cisplatin [2]: do not exhibit any significant enhanced antitumor effect
drugs that enhance any significant antitumor effect of cisplatin [1]: none

SMILES: CN1CCN(CCCN2c3ccccc3Sc3ccc(C(F)(F)F)cc32)CC1 [trifluoperazine]
enhancement of antitumor effect of cisplatin [2]: do not exhibit any significant enhanced antitumor effect

SMILES: COc1ccc(CCN(C)CCCC(C#N)(c2ccc(OC)c(OC)c2)C(C)C)cc1OC (centres unmarked) [verapamil]
enhancement of antitumor effect of cisplatin [2]: do not exhibit any significant enhanced antitumor effect
drugs that enhance any significant antitumor effect of cisplatin [1]: none

SMILES: Clc1ccc(C(c2ccc(Cl)cc2)[n+]2ccn(CC(OCc3ccc(Cl)cc3Cl)c3ccc(Cl)cc3Cl)c2)cc1.[Cl-] (centres unmarked) [calmidazilium]
enhancement of antitumor effect of cisplatin [2]: do not exhibit any significant enhanced antitumor effect

SMILES: N.N.O=C([O-])C1(C(=O)[O-])CCC1.[Pt+2] [carboplatin]
IC50 [3, 8]: 29.5 ± 11.3 µM
IC50 [3, 9]: 37.1 ± 10.8 µM
IC50 [4, 10]: 26.1 ± 7.78 µM
IC50 ([4]; without compound 1, 96 hours): 143 ± 39.1 µM

SMILES: COc1ccc2c(c1)CN(C(=O)CCN1CCC(Cc3ccccc3)CC1)CCS2 [compound 1, 4-[3-(4-benzylpiperidine-1-yl)propionyl]-7-methoxy-2,3,4,5-tetrahydro-1,4-benzothiazepine]
effect on resistance and sensitivity to anticancer drugs ([4]; cisplatin resistant lung cancer cell line PC-14/CDDP, compound 1 at 10 μm): shows the effect of reducing the resistance to and increasing the sensitivity to cisplatin, carboplatin, nedaplatin and taxol
effect on resistance and sensitivity to adriamycin ([5]; adriamycin resistant cell line K562/ADM): shows the effect of reducing the resistance to and increasing the sensitivity to adriamycin
effect of inhibiting tumor growth together with cisplatin (PC-14/CDDP tumor; nude mice with PC-14/CDDP, compound 1 3 mg/kg with cisplatin 4 mg/kg i.v.): the effect of inhibiting tumor growth in the cisplatin resistant cancer cell line (PC-14/CDDP) was exhibited

IC50 ([6]; K562, K562, with compound 1, n = 1, read-out: 50% cell growth inhibiting concentration (IC50) of adriamycin): 4 nM
IC50 ([6]; K562, K562, without compound 1, n = 1, read-out: 50% cell growth inhibiting concentration (IC50) of adriamycin): 8 nM
IC50 ([5]; with compound 1, n = 1): 166 nM
IC50 ([5]; without compound 1, n = 1): 1150 nM
SMILES: COc1cccc2c1C(=O)c1c(O)c3c(c(O)c1C2=O)C[C@@](O)(C(=O)CO)C[C@@H]3O[C@H]1C[C@H](N)[C@H](O)[C@H](C)O1 [adriamycin]

SMILES: COC(=O)C1=C(C)NC(C)=C(C(=O)OC2CCCN(Cc3ccccc3)C2)C1c1cccc([N+](=O)[O-])c1 (centres unmarked) [benidipine]
drugs that enhance any significant antitumor effect of cisplatin [1]: none

SMILES: [NH2][Pt]1([NH2])[O]CC(=O)[O]1 [nedaplatin]
IC50 [3, 8]: 4.36 ± 1.53 µM
IC50 [3, 9]: 7.1 ± 1.53 µM
IC50 [4, 10]: 4.16 ± 1.28 µM
IC50 ([4]; without compound 1, 96 hours): 25.9 ± 8.12 µM

IC50 ([3]; Homo sapiens, PC-14, 96 h, PC-14, with compound 1 (final concentration 10 μm), 96 hours): 0.000663 µM
IC50 ([3]; Homo sapiens, PC-14, 96 h, PC-14, without compound 1, 96 hours): 0.00113 µM
SMILES: CC(=O)O[C@H]1C(=O)[C@@]2(C)[C@H]([C@H](OC(=O)c3ccccc3)[C@]3(O)C[C@H](OC(=O)[C@H](O)[C@@H](NC(=O)c4ccccc4)c4ccccc4)C(C)=C1C3(C)C)[C@]1(OC(C)=O)CO[C@@H]1C[C@@H]2O [taxol]
IC50 ([4]; Homo sapiens, PC-14, 96 h, with compound 1 (final concentration 10 μm), 96 hours): 1.73 µM
IC50 ([4]; Homo sapiens, PC-14, 96 h, without compound 1, 96 hours): 5.29 µM

SMILES: N.N.[Cl][Pt][Cl] [cisplatin]
IC50 [3, 8]: 1.77 ± 0.89 µM
IC50 [3, 9]: 2.4 ± 1.05 µM
IC50 [4, 10]: 2.16 ± 1.12 µM
IC50 ([4]; without compound 1, 96 hours): 18.6 ± 2.83 µM
lowest T/C (PC-14 tumor; 11th day, PC-14, cisplatin 4 mg/kg i.v. with compound 1 3 mg/kg i.v.): 9.76%
lowest T/C (PC-14 tumor; 11th day, PC-14, cisplatin 4 mg/kg i.v., without compound 1): 13.33%
lowest T/C (PC-14 tumor; 15th day, PC-14, cisplatin 4 mg/kg i.v. with compound 1 3 mg/kg i.v.): 6.75%
lowest T/C (PC-14 tumor; 15th day, PC-14, cisplatin 4 mg/kg i.v., without compound 1): 10.52%
Tumor growth rate GR (PC-14 tumor; PC-14, cisplatin 4 mg/kg i.v. on 7th, 15th day, without compound 1): 874.30%
Tumor growth rate GR (PC-14 tumor; PC-14, cisplatin 4 mg/kg i.v. with compound 1 3 mg/kg i.v. on 7th, 15th day): 753.32%
lowest T/C (PC-14/CDDP tumor; 11th day, cisplatin 4 mg/kg i.v. with compound 1 3 mg/kg i.v.): 9.81%
lowest T/C (PC-14/CDDP tumor; 11th day, cisplatin 4 mg/kg i.v., without compound 1): 20.64%
lowest T/C (PC-14/CDDP tumor; 15th day, cisplatin 4 mg/kg i.v. with compound 1 3 mg/kg i.v.): 2.36%
lowest T/C (PC-14/CDDP tumor; 15th day, cisplatin 4 mg/kg i.v., without compound 1): 8.47%
Tumor growth rate GR (PC-14/CDDP tumor; cisplatin 4 mg/kg i.v. on 7th, 15th day, without compound 1): 478.43%
Tumor growth rate GR (PC-14/CDDP tumor; cisplatin 4 mg/kg i.v. with compound 1 3 mg/kg i.v. on 7th, 15th day): 190.52%
resistance of KCP-4 cell to cisplatin [7]: about 63 fold
